Data set [1] deals with IL-2 gene (transcription). Kind of data set: half-life in T cells based on inhibitory activity to IL-2 transcription (time course in Jurkat cells). The following applies: human. As to the method: Subsequently, 100 μl of RPMI containing 2 μM of PMA and 40 μM of ionomycin was added and culture was conducted further for 12 hours, 17 hours, 23 hours, 35 hours or 59 hours.
Subsequently, the relative RNA amount to GAPDH was measured by conducting RT-PCR and real-time quantitative RT-PCR and analysis in the same manner as in Example 3, except that the respective obtained cells were used as samples. The time shown in FIG. 2 refers to the total culture time.
Using 1 ml of 10% fetal bovine serum-containing RPMI containing 1 μM of FK 506, 1×10^5 Jurkat cells were cultured for 1 hour in a carbon dioxide culture device set to 37° C. and carbon dioxide concentration of 5%. Subsequently, 100 μl of RPMI containing 2 μM of PMA and 40 μM of ionomycin was added and culture was conducted further for 12 hours, 17 hours, 23 hours, 35 hours or 59 hours. Thereafter, RT-PCR and real-time quantitative RT-PCR were conducted in the same manner as in Example 3, except that the obtained culture cells were used.

Data set [2] concerns βTC6 cells. Kind of data set: proliferation of βTC6 cells, [3H]TdR incorporation. The note with it: 11R-VEET 10, 100, 1000 or 10000 nM. The class given is cell-based. As to the method: The medium was replaced with a fresh medium containing […] every 24 hours. Subsequently, [^3H]TdR of 1 μCi/well was added and culture was conducted for 8 more hours. For control, βTC6 cells were cultured in the same manner except that a medium without […] was used. Thereafter, the cells were placed on filter paper having a diameter of 1 cm and the radioactivity of [^3H]TdR incorporated into the cells was measured by a beta counter.

Data set [3] deals with IL-2 gene. Kind of data set: transcription of IL-2 gene in Jurkat cells stimulated with PMA and ionomycin, real-time quantitative RT-PCR. The data set is classed as cell-based, human. The following applies: 1 μM 11R-VEET.
Protocol: Subsequently, 100 μl of RPMI containing 2 μM of phorbol 12-myristate 13-acetate (PMA) (available from Sigma-Aldrich Co.) and 40 μM of ionomycin (available from Sigma-Aldrich Co.) was added and culture was continued for 12 more hours. Then, the cells were recovered and using the obtained cells, the transcription amount of IL-2 gene was measured by the following real-time quantitative RT-PCR. In real-time quantitative RT-PCR, GAPDH, which is known as a housekeeping gene, was used as the inner standard substance.
RNeasy Mini Kit (available from QIAGEN K.K.) was used according to protocol and total RNA was extracted from the cells. Using the obtained total RNA, reverse transcription reaction was conducted by incubation at 22° C. for 10 minutes and then at 42° C. for 20 minutes.
Thereafter, using Light Cycler-Fast Start DNA Master SYBR Green I Kit (available from Roche Molecular Biochemicals), 20 μl of a mixed reaction solution ( 1/10 of the amount of the transcription product, 4 mM of MgCl2, 4 kinds of primers: 0.5 μM respectively, 2 μl of 10×Light Cycler-Fast Start DNA Master SYBR Green I) was prepared for amplification reaction. As the primer for human IL-2, the primer included in Competitive Quantitative RT-PCR Kit (available from Funakoshi Co., Ltd.) was used. […]
For data set [4], the system named is transplanted beta cells. The data set is described as follows: beta cell transplant in diabetic model mouse, survival of transplant by Kaplan-Meier. The data set is classed as in vivo. The note with it: 10 mg/kg intraperitoneally once a day after transplant, BALB/c donor, C3H/HeN diabetic recipient.
Protocol: For the transplant, a 6 week old BALB/c mouse was used as the donor and a 6 week old C3H/HeN mouse was used as the recipient.
A diabetic model mouse was prepared by intraperitoneally injecting 220 mg/kg of streptozocin (available from Sigma-Aldrich Japan K.K.) to a C3H/HeN mouse. 6 days after the streptozocin injection, the mouse in which the glucose level exceeded 350 mg/dl was determined as being hyperglycemic.
Meanwhile, the spleen of the BALB/c mouse was taken out and after subjecting to discontinuous Ficoll density gradient centrifugation, beta cells were isolated by normal collagenase digestion.
About 500 of the isolated beta cells were transplanted under the capusula of the left kidney of the above diabetic model mouse. […] The glycemia was measured and when the level thereof exceeded 200 mg/dl for 2 consecutive days, transplant rejection was considered to have occurred.
Data set [5] deals with lymphocytes. Kind of data set: mixed lymphocyte test, [3H]TdR incorporation. The class given is cell-based, mouse. The following applies: 1 μM 11R-VEET.
Protocol: Spleen cells were retrieved from a 6 to 8 week old C3H/HeN mouse and a 6 to 8 week old BALB/c mouse H-2d (available from Shimizu Laboratory Supplies Co., Ltd.). The BALB/c spleen cells were treated with mitomycin C (available from Kyowa Hakko Kogyo Co., Ltd.) and used as stimulating cells.
Subsequently, 5×10^5 of mixed cells obtained by mixing the above stimulating cells and the spleen cells derived from a C3H/HeN mouse in a ratio of 1:5 were added in each well and cultured for 90 hours in a carbon dioxide culture device set to 37° C. and carbon dioxide concentration of 5%. As control, the mixed cells were added to wells containing only a medium and cultured in the same manner.
Then, ^3H-methyl-thymidine (hereinafter referred to as [^3H]TdR, available from Amersham Pharmacia Biotech K.K.) of 0.5 μCi/well was added and culture was conducted for 6 hours. Thereafter, the cells were placed on filter paper having a diameter of 1 cm and the radioactivity of [^3H]TdR incorporated into the cells was measured by a beta counter (made by Beckman Coulter K.K.).
Data set [6] relates to lymphocytes. Kind of data set: mixed lymphocyte test using spleen cells from treated mouse, [3H]TdR incorporation. The class given is in vivo, C3H/HeN mouse. The following applies: printed: 1 μM of 11R-VEET; method b87: 10 mg/kg intraperitoneal. As to the method: Thereafter, the cells were placed on filter paper having a diameter of 1 cm and the radioactivity of [^3H]TdR incorporated into the cells was measured by a beta counter.

Data set [7] relates to βTC6 cells. The data set is described as follows: insulin secretion of βTC6 cells (Mouse Insulin ELISA). The note with it: 11R-VEET 10, 100, 1000 or 10000 nM, 96 hours. The data set is classed as cell-based. As to the method: The medium was replaced with a fresh medium containing […] every 24 hours. After 96 hours, the medium was replaced with a fresh medium. Culture was conducted for 1 more hour and the culture supernatant was collected. For control, βTC6 cells were cultured in the same manner, except that a medium without […] was used. Subsequently, using the collected supernatant, the secreted insulin was analyzed using Mouse Insulin ELISA (TMB) Kit (available from Shibayagi Co., Ltd.) according to protocol.
(An ELISA detects its analyte on a solid surface through an enzyme-linked reagent.)

Residues, ends and D or L forms follow the SMILES beside them.

`CC[C@H](C)[C@H](NC(=O)[C@@H](NC(=O)[C@@H]1CCCN1C(=O)[C@H](Cc1c[nH]cn1)NC(=O)[C@@H]1CCCN1C(=O)CNC(=O)[C@H](C)NC(=O)[C@H](CCSC)NC(=O)CNC(=O)CNC(=O)CNC(=O)[C@H](CCCNC(=N)N)NC(=O)[C@H](CCCNC(=N)N)NC(=O)[C@H](CCCNC(=N)N)NC(=O)[C@H](CCCNC(=N)N)NC(=O)[C@H](CCCNC(=N)N)NC(=O)[C@H](CCCNC(=N)N)NC(=O)[C@H](CCCNC(=N)N)NC(=O)[C@H](CCCNC(=N)N)NC(=O)[C@H](CCCNC(=N)N)NC(=O)[C@H](CCCNC(=N)N)NC(=O)[C@@H](N)CCCNC(=N)N)C(C)C)C(=O)N[C@H](C(=O)N[C@H](C(=O)N[C@H](C(=O)NCC(=O)N1CCC[C@H]1C(=O)N[C@@H](Cc1c[nH]cn1)C(=O)N[C@@H](CCC(=O)O)C(=O)N[C@@H](CCC(=O)O)C(=O)O)[C@@H](C)O)[C@@H](C)CC)C(C)C` [11R-VIVIT] (H-RRRRRRRRRRRGGGMAGPHPVIVITGPHEE-OH; N-terminus and C-terminus assumed) had a half-life at 1 μM in data set [1] of around 30 h.

Consider “11R-VEET: peptide comprising 11 consecutive arginine residues and VEET (MAGPPHIVEETGPHVI) with 3 glycine residues; SEQ ID NO. 4; negative control (RRRRRRRRRRRGGGMAGPPHIVEETGPHVI)”, for which, in data set [2], the “inhibitory effect to proliferation of βTC6 cells” value was “did not exhibit an inhibitory effect”. The “effect on transcription level of IL-2 gene” value in data set [3] is listed as “did not affect”. Moreover, in data set [4], the “survival rate of transplanted beta cells compared to control” value is reported as “did not affect”. Further, the “effect on proliferation of lymphocytes” value in data set [5] was “not affected”. For the same compound, the “effect on proliferation of lymphocytes (cells from treated mouse)” value in data set [6] is given as “not affected”. Besides, the “insulin secretion amount of βTC6 cells” value in data set [7] is “unaffected”.

In general, half-life refers to the time in which the quantity being followed falls by half. A low value points to rapid decline.

The values above are taken from patent US7659249B2, “Membrane-permeable NFAT inhibitory peptide” (Japan Science and Technology Agency, priority 2002, dated 2010).
